Columns and labels:
Experiment in all cases: relative viability (nuclei count vs DMSO), 5 days (fraction); higher = more cells survive
[1] = compound: CC1=C(C(=O)N2C=CSC2=N1)CCN3CCC(=C(C4=CC=CC=C4)C5=CC=C(C=C5)F)CC3 + NC(=O)Nc1cc(-c2cccc(F)c2)sc1C(=O)N[C@H]1CCCNC1 [AZD7762] (partner 0.2 µM)
In short: (§1)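 Lung cancer cell lines in 1536-well plates got either a single drug or a fixed anchor-drug dose together with five library-drug doses (not always all listed) in √10 steps, by pin tool, on the day after seeding. Nuclei were counted after 5 days, and relative viability is the treated-to-vehicle ratio of nuclei counts. Values are medians of duplicate plates.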

[2] = compound: CC1=C(C(=O)N2C=CSC2=N1)CCN3CCC(=C(C4=CC=CC=C4)C5=CC=C(C=C5)F)CC3 + Cc1nc(NC(=O)N2CCC[C@H]2C(N)=O)sc1-c1ccnc(C(C)(C)C(F)(F)F)c1 [Alpelisib] (partner 2 µM)
In short: as §1

[3] = compound: CC1=C(C(=O)N2C=CSC2=N1)CCN3CCC(=C(C4=CC=CC=C4)C5=CC=C(C=C5)F)CC3 + N=C(N)NC(=N)NCCc1ccccc1 [Phenformin] (partner 250 µM)
In short: as §1

[4] = compound: CC1=C(C(=O)N2C=CSC2=N1)CCN3CCC(=C(C4=CC=CC=C4)C5=CC=C(C=C5)F)CC3 + CS(=O)(=O)N1CCN(Cc2cc3nc(-c4cccc5[nH]ncc45)nc(N4CCOCC4)c3s2)CC1 [Pictilisib] (partner 1 µM)
In short: as §1

Cell Line | relative viability ([1]; first compound 0.08 µM) | relative viability ([1]; first compound 0.253 µM) | relative viability ([1]; first compound 0.8 µM) | relative viability ([1]; first compound 2.53 µM) | relative viability ([1]; first compound 8 µM) | relative viability ([2]; first compound 0.08 µM) | relative viability ([2]; first compound 0.253 µM) | relative viability ([2]; first compound 0.8 µM) | relative viability ([2]; first compound 2.53 µM) | relative viability ([2]; first compound 8 µM) | relative viability ([3]; first compound 0.08 µM) | relative viability ([3]; first compound 0.253 µM) | relative viability ([3]; first compound 0.8 µM) | relative viability ([3]; first compound 2.53 µM) | relative viability ([3]; first compound 8 µM) | relative viability ([4]; first compound 0.08 µM) | relative viability ([4]; first compound 0.253 µM) | relative viability ([4]; first compound 0.8 µM) | relative viability ([4]; first compound 2.53 µM) | relative viability ([4]; first compound 8 µM)
LCLC-103H | 0.923 | 0.766 | 0.781 | 0.822 | 0.655 | 1.08 | 1 | 1.12 | 1.01 | 0.918 | 0.327 | 0.331 | 0.316 | 0.308 | 0.289 | 0.884 | 0.636 | 0.449 | 0.618 | 0.566
LK-2 | 0.496 | 0.304 | 0.56 | 0.349 | 0.289 | 1.24 | 1.19 | 1.23 | 1.08 | 0.773 | 0.417 | 0.386 | 0.301 | 0.297 | 0.321 | 0.611 | 0.66 | 0.605 | 0.451 | 0.539
LOU-NH91 | 0.763 | 0.714 | 0.833 | 0.84 | 0.691 | 0.687 | 0.709 | 0.807 | 0.749 | 0.677 | 0.72 | 0.676 | 0.689 | 0.673 | 0.597 | 0.561 | 0.503 | 0.545 | 0.55 | 0.527
LU99A | 0.345 | 0.367 | 0.403 | 0.398 | 0.294 | 0.47 | 0.47 | 0.496 | 0.621 | 0.456 | 0.777 | 0.846 | 0.767 | 0.841 | 0.658 | 0.377 | 0.316 | 0.342 | 0.389 | 0.311
LXF-289 | 0.789 | 1.22 | 1.14 | 1.13 | 0.515 | 1.06 | 1.07 | 1.08 | 1.03 | 0.917 | 0.463 | 0.542 | 0.508 | 0.482 | 0.376 | 0.824 | 0.953 | 0.804 | 0.674 | 0.724
NCI-H23 | 0.279 | 0.269 | 0.234 | 0.248 | 0.229 | 0.694 | 0.545 | 0.772 | 0.829 | 0.411 | 0.757 | 0.668 | 0.782 | 0.773 | 0.564 | 0.473 | 0.39 | 0.443 | 0.497 | 0.374
NCI-H322M | 0.601 | 0.606 | 0.563 | 0.516 | 0.543 | 0.769 | 0.85 | 0.897 | 0.804 | 0.8 | 0.745 | 0.785 | 0.737 | 0.773 | 0.873 | 0.513 | 0.526 | 0.524 | 0.526 | 0.496
NCI-H358 | 0.555 | 0.487 |  | 0.462 | 0.477 | 0.821 | 0.912 | 0.744 | 1.07 | 0.553 | 0.344 | 0.361 | 0.361 | 0.379 | 0.243 | 0.301 | 0.338 | 0.326 | 0.38 | 0.305
NCI-H441 | 0.859 | 1.12 | 1.23 | 1.07 | 0.671 |  | 0.638 | 0.79 | 1.01 | 0.588 | 0.797 | 0.759 | 0.918 | 0.737 | 0.667 |  | 0.519 | 0.464 | 0.563 | 0.366
NCI-H460 | 0.769 | 0.604 | 0.712 | 0.6 | 0.482 | 0.54 | 0.588 | 0.366 | 0.621 | 0.221 | 0.474 | 0.562 | 0.611 | 0.548 | 0.113 | 0.326 | 0.329 | 0.329 | 0.366 | 0.209
NCI-H596 | 1.18 | 0.913 | 1.2 | 1.08 | 0.965 | 0.396 | 0.478 | 0.624 | 0.503 | 0.426 | 0.702 | 0.826 | 0.915 | 0.74 | 0.578 | 0.435 | 0.418 | 0.38 | 0.369 | 0.386
NCI-H647 | 0.558 | 0.449 | 0.37 | 0.426 | 0.234 | 1.71 | 1.24 | 0.993 | 1.06 | 0.793 | 0.573 | 0.644 | 0.54 | 0.438 | 0.348 | 0.552 | 0.385 | 0.381 | 0.498 | 0.312
NCI-H650 | 1.07 | 0.998 | 0.94 | 1.04 | 0.805 |  | 1.12 | 1.29 | 1.09 | 0.794 | 0.404 | 0.521 | 0.421 | 0.497 | 0.404 |  | 0.763 | 0.786 | 0.99 | 0.71
NCI-H727 | 0.561 | 0.744 | 0.715 | 0.575 | 0.553 | 0.507 | 0.509 | 0.493 | 0.738 | 0.425 | 0.593 | 0.55 | 0.481 | 0.464 | 0.47 | 0.352 | 0.351 | 0.35 | 0.354 | 0.423
NCI-H838 | 0.839 | 0.904 | 0.992 | 0.958 | 0.806 | 0.964 | 0.979 | 1.02 | 1.32 | 0.773 | 0.629 | 0.533 | 0.569 | 0.576 | 0.464 | 0.439 | 0.489 | 0.466 | 0.58 | 0.444
NCI-H1355 | 1.02 | 0.846 | 0.822 | 0.815 | 0.595 | 0.79 | 0.948 | 0.854 | 0.899 | 0.623 | 0.428 | 0.442 | 0.441 | 0.427 | 0.391 | 0.445 | 0.504 | 0.534 | 0.472 | 0.385
